This note sets out measurements from patent US20070275961A1, “Triazolo ' 1, 5-A ! Pyrimidines and Their Use in Medicine” (VERNALIS (CAMBRIDGE) LIMITED., priority 2003, published 2007).

Like-named read-outs stand apart in the source and are kept apart here.

Holding throughout (format): biochemical
In one experiment the target is T1, Chk1 (Homo sapiens, UniProt O14757).
T1 sequence (O14757 1-476): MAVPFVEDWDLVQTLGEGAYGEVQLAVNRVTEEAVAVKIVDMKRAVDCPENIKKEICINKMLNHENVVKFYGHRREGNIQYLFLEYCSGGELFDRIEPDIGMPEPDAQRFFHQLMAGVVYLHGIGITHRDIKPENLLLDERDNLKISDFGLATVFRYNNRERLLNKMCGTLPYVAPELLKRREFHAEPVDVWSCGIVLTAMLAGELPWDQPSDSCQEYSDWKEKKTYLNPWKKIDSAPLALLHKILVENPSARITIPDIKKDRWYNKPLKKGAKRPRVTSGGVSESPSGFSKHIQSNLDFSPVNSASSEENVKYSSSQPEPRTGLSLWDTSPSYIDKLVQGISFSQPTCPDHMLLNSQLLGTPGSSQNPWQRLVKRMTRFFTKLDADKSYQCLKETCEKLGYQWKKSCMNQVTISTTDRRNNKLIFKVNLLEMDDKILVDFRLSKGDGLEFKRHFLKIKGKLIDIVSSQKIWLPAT
In words: Chk1 kinase assay, phosphorylation of Chktide (33P-ATP filtration). Particulars: 0.01 mM ATP, read-out: Chk1 IC50. Summed up:
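GST-Chk1 (11 nM) with inhibitor, 30 μM Chktide peptide, 0.01 mM ATP plus 33P-γ-ATP in 50 mM Hepes pH 7.5 with 0.1 mg/ml BSA, 40 min at 30° C. Stopped with phosphoric acid; phosphorylated peptide captured on filter plates and scintillation-counted.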

The next experiment addresses T2, PDK1 enzyme (Homo sapiens, UniProt O15530).
T2 sequence (O15530 1-556): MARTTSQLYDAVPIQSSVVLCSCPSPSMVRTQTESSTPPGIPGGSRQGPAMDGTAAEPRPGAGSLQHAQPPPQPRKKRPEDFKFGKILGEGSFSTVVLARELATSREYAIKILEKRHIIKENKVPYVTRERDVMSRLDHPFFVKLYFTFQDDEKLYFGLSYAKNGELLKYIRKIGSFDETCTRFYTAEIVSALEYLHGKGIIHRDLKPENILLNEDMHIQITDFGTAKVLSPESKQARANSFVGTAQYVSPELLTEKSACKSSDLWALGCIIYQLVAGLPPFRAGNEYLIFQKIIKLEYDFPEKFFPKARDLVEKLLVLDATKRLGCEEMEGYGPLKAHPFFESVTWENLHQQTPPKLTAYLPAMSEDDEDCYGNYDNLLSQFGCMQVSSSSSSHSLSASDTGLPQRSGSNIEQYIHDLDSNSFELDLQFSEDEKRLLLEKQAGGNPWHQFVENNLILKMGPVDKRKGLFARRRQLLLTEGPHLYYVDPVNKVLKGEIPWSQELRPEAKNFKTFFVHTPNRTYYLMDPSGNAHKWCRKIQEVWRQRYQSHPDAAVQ
As to the kind of experiment: PDK1 3'-phosphoinositide-dependent kinase assay, phosphorylation of synthetic peptide (33P-ATP filtration). Particulars: 0.01 mM ATP, read-out: PDK1 IC50. Summed up: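 Radiometric peptide phosphorylation by PDK1 with inhibitor, 60 min at 30 °C, using 0.01 mM ATP plus 33P-γ-ATP, 0.075 mM peptide, 7.5 mM Mg acetate in Tris-HCl pH 7.5. Phosphoric acid stopped reaction; phosphorylated peptide captured on filter plates and counted by scintillation.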

For experiment [1], the target named is CDK2 enzyme, complexed with cyclin A (Homo sapiens, UniProt P24941). As to the kind of experiment: CDK2 cyclin dependent kinase assay, phosphorylation of synthetic peptide […] (33P-ATP filtration). Particulars: 0.1 mM ATP.

A word on the IC50: it is the concentration that inhibits the measured activity by half.

As to `CN(C)S(=O)(=O)c1ccc(Nc2cc(Cl)nc3ncnn23)cc1` [Example 8], the figures for the IC50 (on Chk1 (Table 1); at PDK1 enzyme (Table 1); in experiment [1] (Table 1)) were over 200 µM, over 200 µM and 48.2 µM, respectively.

As for `CC(C)c1cc(Nc2ccc(C(N)=O)cc2)nc2ncnn12` [Example 115], the IC50 was 83.7 µM on Chk1 (Table 3), over 200 µM at PDK1 enzyme (Table 3) and 148 µM in experiment [1] (Table 3).

For the molecule `N[C@H]1CC[C@H](Nc2cc(Nc3ccc(S(=O)(=O)c4ccccc4)cc3)n3ncnc3n2)CC1` [Example 98], the IC50 is 2.19 µM on Chk1 (Table 2), 14.2 µM at PDK1 enzyme (Table 2) and 0.26 µM in experiment [1] (Table 2).

For the molecule `OCCc1ccc(Nc2cc(-c3cccc(F)c3)n3ncnc3n2)cc1` [Example 111], the results for the IC50 (at Chk1 (Table 3); on PDK1 enzyme (Table 3); in experiment [1] (Table 3)) were 9.57 µM, 52.2 µM and over 200 µM, respectively.

As to `CCc1cc(OCCN)cc(-c2cc(Nc3ccc(C(N)=O)cc3)nc3ncnn23)c1` [Example 166], the results for the IC50 (on Chk1 (Table 4); on PDK1 enzyme (Table 4); in experiment [1] (Table 4)) were 2.7 µM, 1.2 µM and 2.58 µM, respectively.

`CCN(CC)c1cc(NCc2ccc(S(C)(=O)=O)cc2)n2ncnc2n1` [Example 103]: the half-maximal inhibitory concentration (IC50) was over 200 µM on Chk1 (Table 2), over 200 µM at PDK1 enzyme (Table 2) and 29.8 µM in experiment [1] (Table 2).

In the case of `CN1CCN(c2cc(Nc3ccc(S(C)(=O)=O)cc3)n3ncnc3n2)CC1` [Example 63], the results for the IC50 (at Chk1 (Table 2); at PDK1 enzyme (Table 2); in experiment [1] (Table 2)) were over 200 µM, over 200 µM and 46.2 µM, respectively.

Consider `CS(=O)(=O)c1ccc(CNc2cc(N[C@H]3CC[C@H](N)CC3)nc3ncnn23)cc1` [Example 100], for which the values for the IC50 (on Chk1 (Table 2); on PDK1 enzyme (Table 2); in experiment [1] (Table 2)) were over 200 µM, over 200 µM and 2.95 µM, respectively.

For the molecule `CS(=O)(=O)c1ccc(Nc2cc(N3CCC(C(N)=O)CC3)nc3ncnn23)cc1` [Example 89], the results for the IC50 (on Chk1 (Table 2); on PDK1 enzyme (Table 2); in experiment [1] (Table 2)) were over 200 µM, over 200 µM and 36 µM, respectively.

Consider `CN(C)S(=O)(=O)c1ccc(Nc2cc(-c3cccc(F)c3)n3ncnc3n2)cc1` [Example 129], for which the figures for the IC50 (on Chk1 (Table 3); on PDK1 enzyme (Table 3); in experiment [1] (Table 3)) were 12.2 µM, 30.6 µM and over 200 µM, respectively.

On to `C[C@H]1CCCC(Oc2cc(Nc3ccc(S(N)(=O)=O)cc3)n3ncnc3n2)C1` (stereo partly drawn) [Example 5], for which the results for the IC50 (on Chk1 (Table 1); on PDK1 enzyme (Table 1); in experiment [1] (Table 1)) were over 200 µM, over 200 µM and 6.4 µM, respectively.

Turning to `CCN(CC)c1cc(Nc2ccc(S(=O)(=O)c3ccccc3)cc2)n2ncnc2n1` [Example 93], the IC50 is over 200 µM on Chk1 (Table 2), over 200 µM on PDK1 enzyme (Table 2) and 0.67 µM in experiment [1] (Table 2).

As for `CCN(CC)CCOc1cccc(-c2cc(Nc3ccc(C(N)=O)cc3)nc3ncnn23)c1` [Example 146], the figures for the IC50 (on Chk1 (Table 4); at PDK1 enzyme (Table 4); in experiment [1] (Table 4)) were 20.8 µM, 7.6 µM and 5.51 µM, respectively.

Consider `Clc1cc(Nc2ccccc2)n2ncnc2n1` [Example 75], for which the figures for the IC50 (on Chk1 (Table 2); on PDK1 enzyme (Table 2); in experiment [1] (Table 2)) were over 200 µM, over 200 µM and 62.8 µM, respectively.

With `NS(=O)(=O)c1ccc(Nc2cc(N3CCCC(CO)C3)nc3ncnn23)cc1` (stereo not drawn) [Example 23], the values for the IC50 (on Chk1 (Table 1); on PDK1 enzyme (Table 1); in experiment [1] (Table 1)) were over 200 µM, over 200 µM and 0.33 µM, respectively.

Regarding `CN(C)S(=O)(=O)c1ccc(Nc2cc(N[C@H]3CC[C@H](N)CC3)nc3ncnn23)cc1` [Example 83], the values for the IC50 (at Chk1 (Table 2); on PDK1 enzyme (Table 2); in experiment [1] (Table 2)) were 93.4 µM, 43.3 µM and 0.27 µM, respectively.

On to `CC(C)N(CCO)c1cc(Nc2ccc(S(C)(=O)=O)cc2)n2ncnc2n1` [Example 87], for which the IC50 at Chk1 (Table 2) was over 200 µM; at PDK1 enzyme (Table 2), over 200 µM; in experiment [1] (Table 2) it was 1.49 µM.

`CCN(CC)c1cc(Nc2ccc(S(=O)(=O)N3CCC(O)CC3)cc2)n2ncnc2n1` [Example 72]: the values for the IC50 (on Chk1 (Table 2); on PDK1 enzyme (Table 2); in experiment [1] (Table 2)) were over 200 µM, over 200 µM and 0.38 µM, respectively.

In the case of `CS(=O)(=O)c1ccc(Nc2cc(N)nc3ncnn23)cc1` [Example 97], the results for the IC50 (at Chk1 (Table 2); at PDK1 enzyme (Table 2); in experiment [1] (Table 2)) were over 200 µM, over 200 µM and 20.3 µM, respectively.

On to `CS(=O)(=O)c1ccc(Nc2cc(N[C@H]3CC[C@H](N)CC3)nc3ncnn23)cc1` [Example 84], for which the figures for the IC50 (on Chk1 (Table 2); at PDK1 enzyme (Table 2); in experiment [1] (Table 2)) were over 200 µM, 107 µM and 0.25 µM, respectively.

Turning to `NS(=O)(=O)c1ccc(Nc2cc(N3CCCCC3)nc3ncnn23)cc1` [Example 34], the figures for the IC50 (at Chk1 (Table 1); on PDK1 enzyme (Table 1); in experiment [1] (Table 1)) were over 200 µM, over 200 µM and 0.62 µM, respectively.

Regarding `NS(=O)(=O)c1cccc(Nc2cc(Cl)nc3ncnn23)c1` [Example 52], the IC50 at Chk1 (Table 1) was over 200 µM; on PDK1 enzyme (Table 1), over 200 µM; in experiment [1] (Table 1), 40.9 µM.

Turning to `Cc1cccc(-c2cc(Nc3ccc(C(N)=O)cc3)nc3ncnn23)c1` [Example 104], the IC50 at Chk1 (Table 3) is 14.9 µM; on PDK1 enzyme (Table 3), 4.08 µM; in experiment [1] (Table 3), over 200 µM.

Consider `CC(C)Nc1cc(Nc2ccc(S(N)(=O)=O)cc2)n2ncnc2n1` [Example 9], for which the IC50 on Chk1 (Table 1) was over 200 µM; on PDK1 enzyme (Table 1), over 200 µM; in experiment [1] (Table 1), 0.89 µM.

For the molecule `COc1ccc(Nc2cc(-c3cccc(Cl)c3)nc3ncnn23)cn1` [Example 40], the figures for the IC50 (at Chk1 (Table 1); on PDK1 enzyme (Table 1); in experiment [1] (Table 1)) were over 200 µM, over 200 µM and 8.29 µM, respectively.

For the molecule `O=S(=O)(c1ccc(Nc2cc(Cl)nc3ncnn23)cc1)N1CCOCC1` [Example 17], the IC50 was over 200 µM on Chk1 (Table 1), over 200 µM at PDK1 enzyme (Table 1) and 16.7 µM in experiment [1] (Table 1).

Regarding `CC(C)C(CO)Nc1cc(Nc2ccc(S(N)(=O)=O)cc2)n2ncnc2n1` (stereo not drawn) [Example 31], the values for the IC50 (on Chk1 (Table 1); on PDK1 enzyme (Table 1); in experiment [1] (Table 1)) were over 200 µM, over 200 µM and 4.91 µM, respectively.

On to `CCOc1cc(Nc2ccc(S(N)(=O)=O)cc2)n2ncnc2n1` [Example 12], for which the figures for the IC50 (on Chk1 (Table 1); at PDK1 enzyme (Table 1); in experiment [1] (Table 1)) were over 200 µM, over 200 µM and 13 µM, respectively.

`CCN(CC)CCNC(=O)c1ccc(Nc2cc(Cl)nc3ncnn23)cc1` [Example 39]: the values for the IC50 (on Chk1 (Table 1); on PDK1 enzyme (Table 1); in experiment [1] (Table 1)) were over 200 µM, over 200 µM and 42.8 µM, respectively.

In the case of `NC(=O)c1ccc(Nc2cc(-c3cccc(OCc4ccccc4)c3)n3ncnc3n2)cc1` [Example 149], the IC50 amounted to 4.12 µM at Chk1 (Table 4), 2.26 µM at PDK1 enzyme (Table 4) and 8.41 µM in experiment [1] (Table 4).

For `CN(C)c1ccc(Nc2cc(Cl)nc3ncnn23)cc1` [Example 21], the IC50 on Chk1 (Table 1) was over 200 µM; on PDK1 enzyme (Table 1) it was over 200 µM; in experiment [1] (Table 1) it was 59 µM.

As to `NS(=O)(=O)c1ccc(CNc2cc(Cl)nc3ncnn23)cc1` [Example 38], the IC50 at Chk1 (Table 1) was over 200 µM; at PDK1 enzyme (Table 1), over 200 µM; in experiment [1] (Table 1), 15 µM.

Turning to `NS(=O)(=O)c1ccc(Nc2cc(-c3cccc(F)c3)n3ncnc3n2)cc1` [Example 118], the results for the IC50 (at Chk1 (Table 3); at PDK1 enzyme (Table 3); in experiment [1] (Table 3)) were 1.54 µM, 6.28 µM and 116 µM, respectively.
